Results taken from patent publication US20220331326A1, “PHARMACEUTICAL COMPOSITION, PHARMACEUTICAL DOSAGE FORM, PROCESS FOR THEIR PREPARATION, METHODS FOR TREATING AND USES THEREOF” (Boehringer Ingelheim International GmbH, priority 2009, published 2022).

Assays:
[1] = compatibility with / degradation of linagliptin in the composition; type: physicochemical; conditions: combined with a glucopyranosyl-substituted benzene derivative of the formula (I), in particular the compound (I.3)
Procedure: Preferably the excipients are chosen such that they are compatible with linagliptin, i.e. such that there is no or only marginal degradation of linagliptin in the pharmaceutical composition. The degradation can be tested in standard tests, for example after a 6 months storage at 40° C. and 75% relative humidity. In this context the term “marginal degradation” shall mean a chemical degradation of linagliptin of less than 5%, preferably less than 3%, even more preferably less than 2% by weight of linagliptin. The content and thus the degradation can be determined by well-known analytical methods, for example using HPLC or UV methods.

[2] = tested on: Zucker Diabetic Fatty (ZDF) rats; assay: oral glucose tolerance test in ZDF rats; type: in vivo, rat; conditions: male ZDF rats, single oral dose 30 min before 2 g/kg oral glucose; linagliptin 1 mg/kg, compound (I.3) 3 mg/kg, combination at the same doses; versus control
Procedure: According to a first example an oral glucose tolerance test is performed in overnight fasted 9-weeks old male Zucker Diabetic Fatty (ZDF) rats (ZDF/Crl-Lepr^fa). A pre-dose blood sample is obtained by tail bleed. Blood glucose is measured with a glucometer, and the animals are randomized for blood glucose (n=5/group). Subsequently, the groups receive a single oral administration of either vehicle alone (0.5% aqueous hydroxyethylcellulose containing 3 mM HCl and 0.015% Polysorbat 80) or vehicle containing either the SGLT2 inhibitor or the DPPIV inhibitor or the combination of the SGLT2 inhibitor plus the DPP IV inhibitor plus. The animals receive an oral glucose load (2 g/kg) 30 min after compound administration. Blood glucose is measured in tail blood 30 min, 60 min, 90 min, 120 min, and 180 min after the glucose challenge. Glucose excursion is quantified by calculating the reactive glucose AUC. The data are presented as mean±SEM. The two-sided unpaired Student t-test is used for statistical comparison of the control group and the active groups.
“Cpd. A” is linagliptin at a dose of 1 mg/kg. Cpd. B is the compound (I.3), i.e. 1-chloro-4-(β-D-glucopyranos-1-yl)-2-[4-((S)-tetrahydrofuran-3-yloxy)-benzyl]-benzene, at a dose of 3 mg/kg. Combination A+B is the combination of linagliptin and the compound (I.3) at the same doses. P-values versus control are indicated by symbols above the bars. […]

[3] = metformin on its own, in the diabetic; cited from earlier work

SMILES | degradation of linagliptin [1] | reduction of glucose excursion (reactive glucose AUC) in oral glucose tolerance test [2] | average improvement in the HbA1c value [3]
CC#CCn1c(N2CCC[C@@H](N)C2)nc2c1c(=O)n(Cc1nc(C)c3ccccc3n1)c(=O)n2C [Linagliptin, linagliptin] | does not show or shows only marginal degradation | 56% | 
OC[C@H]1O[C@@H](c2ccc(Cl)c(Cc3ccc(O[C@H]4CCOC4)cc3)c2)[C@H](O)[C@@H](O)[C@@H]1O [compound (I.3), 1-chloro-4-(β-D-glucopyranos-1-yl)-2-[4-((S)-tetrahydrofuran-3-yloxy)-benzyl]-benzene] |  | 51% | 
CN(C)C(=N)N=C(N)N [metformin] |  |  | 1.0-1.5%
